Test results published in article PMC12396409, “Screening and hit evaluation of a microbial metabolite library against the pathogenic Plasmodium falciparum and Toxoplasma gondii parasites” (International Journal for Parasitology: Drugs and Drug …, 2025).
Read-outs that look alike come from different tables or passages of the source. *1 amine or outer side, *2 acyl side, *3 side chain or, on linkers, in order; H or OH if unused. Where a SMILES comes first, the peptide text is derived from it. Bridges are numbered along the chain shown (N, C = ends). [ ]: non-standard residue; d: D form. The star is where a group is joined. X1 = O=C1C[C@@H](C(=O)[*:2])N([*:1])C[C@H]1CS[C@@H]1CN2CCC1CC2; NMePhe(4-NMe2) = CN[C@@H](Cc1ccc(N(C)C)cc1)C(=O)O; Picolinoyl(3-OH) = O=C(c1ncccc1O)*; Phg = N[C@H](C(=O)O)c1ccccc1; dAbu = CC[C@@H](N)C(=O)O

Key:
[1] = test system: T. gondii RH strain (RH-Tub-eYFP) tachyzoites; assay: microbe, parasite or virus in culture; format: cell-based, Toxoplasma gondii; conditions: for Tg_72h_%Growth_Rep1 / Tg_72h_%Growth_Rep2 / percent parasite growth at 2 µg/mL: 72 h; for percent parasite growth at 2 µg/mL: Toxoplasma gondii
[2] = test system: P. falciparum 3D7 parasites; assay: P. falciparum growth inhibition assay, 1-cycle (72 h treatment), SYBR DNA staining (library screen at 2 μg/mL and dose-response); format: cell-based, Plasmodium falciparum; conditions: for Pf_72h_%Growth_Rep1 / Pf_72h_%Growth_Rep2 / activity at 2 µg/mL: 72 h; for activity at 2 µg/mL: Plasmodium falciparum, 3D7
[3] = test system: P. falciparum 3D7 parasites; assay: P. falciparum growth inhibition assay, 2-cycle (120 h treatment), delayed-death screen and dose-response; format: cell-based, Plasmodium falciparum; conditions: 120 h; for activity at 2 µg/mL: Plasmodium falciparum, 3D7
[4] = T. gondii, parasite screen 2 μg/mL, % growth, replicate 1
[5] = T. gondii, parasite screen 2 μg/mL, % growth, replicate 2
[6] = P. falciparum, parasite screen 2 μg/mL, % growth, replicate 1
[7] = P. falciparum, parasite screen 2 μg/mL, % growth, replicate 2
[8] = T. gondii, screen at 2 μg/mL, replicate 1
[9] = T. gondii, screen at 2 μg/mL, replicate 2
[10] = P. falciparum, screen at 2 μg/mL, replicate 1
[11] = P. falciparum, screen at 2 μg/mL, replicate 2
[12] = active against the parasite at 2 μg/mL, no anti-tumour (NS-1) or cytotoxic (fibroblast) activity at 5 μg/mL
[13] = library screen at 2 μg/mL, % growth, replicate 1
[14] = library screen at 2 μg/mL, % growth, replicate 2

With `CC[C@H]1NC(=O)[C@@H](NC(=O)c2ncccc2O)[C@@H](C)OC(=O)[C@H](c2ccccc2)NC(=O)[C@@H]2CC(=O)[C@H](CS[C@@H]3CN4CCC3CC4)CN2C(=O)[C@H](Cc2ccc(N(C)C)cc2)N(C)C(=O)[C@@H]2CCCN2C1=O.CS(=O)(=O)O` [Quinupristin mesylate] ({Picolinoyl(3-OH)}-T[dAbu]P[NMePhe(4-NMe2)][X1][Phg]; ester 1-C) the Tg_72h_%Growth_Rep1 [1, 4] was 87.31%, the Tg_72h_%Growth_Rep2 [1, 5] was 81.75% and the Pf_72h_%Growth_Rep1 [2, 6] was 73.76%. It also gave a Pf_72h_%Growth_Rep2 [2, 7] of 97.23%, a Pf_120h_%Growth_Rep1 [3, 6] of 64.23% and a Pf_120h_%Growth_Rep2 [3, 7] of 110.37%.
In the case of `C=C1[C@@H](C)[C@H]2[C@H](Cc3ccccc3)NC(=O)[C@]23OC(=O)/C=C/C(=O)CCC[C@@H](C)C/C=C/[C@H]3[C@@H]1O` [Cytochalasin A], the Tg_72h_%Growth_Rep1 [1, 8] is reported as 2.84%, the Tg_72h_%Growth_Rep2 [1, 9] is reported as 2.30% and the Pf_72h_%Growth_Rep1 [2, 10] is reported as 14.20%. The Pf_72h_%Growth_Rep2 [2, 11] was 12.98%, the Pf_120h_%Growth_Rep1 [3, 10] was 0.48% and the Pf_120h_%Growth_Rep2 [3, 11] was 6.78%.
In the case of `CC(C)C[C@@H]1NC(=O)[C@@H]2CCCN2C1=O` [Cyclo(L-Leu-L-Pro)], the Tg_72h_%Growth_Rep1 [1, 8] is reported as 124.64%, the Tg_72h_%Growth_Rep2 [1, 9] is reported as 91.02% and the Pf_72h_%Growth_Rep1 [2, 10] is reported as 83.89%. It also gave a Pf_72h_%Growth_Rep2 [2, 11] of 81.36%, a Pf_120h_%Growth_Rep1 [3, 10] of 82.10% and a Pf_120h_%Growth_Rep2 [3, 11] of 83.93%.
For `CC[C@H]1C[C@@H]2CC[C@@H](O2)[C@@H](C)C(=O)O[C@H](CC)C[C@H]2CC[C@H](O2)[C@H](C)C(=O)O[C@@H](C)C[C@@H]2CC[C@@H](O2)[C@@H](C)C(=O)O[C@H](CC)C[C@H]2CC[C@H](O2)[C@H](C)C(=O)O1` [Trinactin], the Tg_72h_%Growth_Rep1 [1, 8] was 2.98%, the Tg_72h_%Growth_Rep2 [1, 9] was 5.01% and the Pf_72h_%Growth_Rep1 [2, 10] was 3.59%. For the same molecule, the Pf_72h_%Growth_Rep2 [2, 11] was -0.10%, the Pf_120h_%Growth_Rep1 [3, 10] was 16.44% and the Pf_120h_%Growth_Rep2 [3, 11] was 5.60%.
With `Nc1ncnc2c1ncn2[C@@H]1O[C@H](C[C@@H](N)CC[C@H](N)C(=O)O)[C@@H](O)[C@H]1O` [sinefungin, reference compound] the percent parasite growth at 2 µg/mL ([1]; T. gondii, parasite screen 2 μg/mL, % growth, replicate 1, read-out: Tg_72h_%Growth_Rep1) was 7.22%, the percent parasite growth at 2 µg/mL ([1]; T. gondii, parasite screen 2 μg/mL, % growth, replicate 2, read-out: Tg_72h_%Growth_Rep2) was 12.7% and the “selectivity for T. gondii in the screens” value [1, 12] was “also active”. The activity at 2 µg/mL ([2]; P. falciparum, parasite screen 2 μg/mL, % growth, replicate 1, read-out: Pf_72h_%Growth_Rep1) was 17.1%, the activity at 2 µg/mL ([2]; P. falciparum, parasite screen 2 μg/mL, % growth, replicate 2, read-out: Pf_72h_%Growth_Rep2) was 12.1% and the “selectivity for P. falciparum in the screens” value [2, 12] was “also active”. It also gave an activity at 2 µg/mL ([3]; P. falciparum, parasite screen 2 μg/mL, % growth, replicate 1, read-out: Pf_120h_%Growth_Rep1) of 13.4% and an activity at 2 µg/mL ([3]; P. falciparum, parasite screen 2 μg/mL, % growth, replicate 2, read-out: Pf_120h_%Growth_Rep2) of -3.05%.
Molecule `CCCCCCCCCC[C@@H](O)C[C@]1(O)O[C@H](CC(O)C(O)C(O)C(O)C(O)CC(O)CC(O)CC(O)CC(O)C(C)C(O)C(C)C(O)CC(O)C(C)C(O)C(O)C[C@H](C)C[C@H](C)/C=C(C)/C(O)=C2\C(=O)CN(C)C2=O)[C@@H](O)[C@H](O)[C@@H]1O` (some centres unmarked) [Blasticidin A] has a Tg_72h_%Growth_Rep1 [1, 8] of 83.39%, a Tg_72h_%Growth_Rep2 [1, 9] of 93.60% and a Pf_72h_%Growth_Rep1 [2, 10] of 84.79%. The Pf_72h_%Growth_Rep2 [2, 11] was 87.65%, the Pf_120h_%Growth_Rep1 [3, 10] was 135.50% and the Pf_120h_%Growth_Rep2 [3, 11] was 87.28%.
`CCCCCCCCCCCCCCCC(=O)C1=C(O)C(CO)OC1=O` (centres unmarked) [TAN 1364B] gave a Tg_72h_%Growth_Rep1 [1, 4] of 101.38%, a Tg_72h_%Growth_Rep2 [1, 5] of 92.62% and a Pf_72h_%Growth_Rep1 [2, 6] of 72.25%. It also gave a Pf_72h_%Growth_Rep2 [2, 7] of 85.83%, a Pf_120h_%Growth_Rep1 [3, 6] of 149.02% and a Pf_120h_%Growth_Rep2 [3, 7] of 76.93%.
`CN(C)[C@H]1C(O)=C(C(N)=O)C(=O)[C@@]2(O)C(O)=C3C(=O)c4c(O)ccc(Cl)c4[C@@](C)(O)[C@H]3C[C@@H]12.Cl` [Epichlortetracycline hydrochloride] was tested, and the Tg_72h_%Growth_Rep1 [1, 13] was 92.54%, the Tg_72h_%Growth_Rep2 [1, 14] was 103.55% and the Pf_72h_%Growth_Rep1 [2, 13] was 82.03%. For the same molecule, the Pf_72h_%Growth_Rep2 [2, 14] was 85.38%, the Pf_120h_%Growth_Rep1 [3, 13] was 77.41% and the Pf_120h_%Growth_Rep2 [3, 14] was 79.95%.
With `CC[C@H]1OC(=O)[C@H](C)[C@@H](O[C@H]2C[C@@](C)(OC)[C@@H](O)[C@H](C)O2)[C@H](C)[C@@H](O[C@@H]2O[C@H](C)C[C@H](N(C)C)[C@H]2O)[C@](C)(O)C[C@@H](C)C(=O)[C@H](C)[C@@H](O)[C@H]1C` [Erythromycin B] the Tg_72h_%Growth_Rep1 [1, 13] was 53.14%, the Tg_72h_%Growth_Rep2 [1, 14] was 48.82% and the Pf_72h_%Growth_Rep1 [2, 13] was 77.77%. For the same molecule, the Pf_72h_%Growth_Rep2 [2, 14] was 67.71%, the Pf_120h_%Growth_Rep1 [3, 13] was 64.18% and the Pf_120h_%Growth_Rep2 [3, 14] was 47.52%.
